Source: ChEMBL document CHEMBL1799910, “Optimization of 1,2,3,4-tetrahydroacridin-9(10H)-ones as antimalarials utilizing structure-activity and structure-property relationships” (J Med Chem, 2011)
≈ marks a conversion by molar mass, not a printed value.

What was measured:
[1] = Partition coefficient, log D of the compound at pH 7.4 by HPLC analysis; conditions: octanol/water
Plasmodium falciparum [2] = assay: Resistance index, ratio of EC50 for chloroquine, mefloquine, pyrimethamine and atovaquone-resistant Plasmodium falciparum TM90-C2B to EC50 for chloroquine and pyrimethamine-resistant Plasmodium falciparum W2; assay type: functional
[3] = Cytotoxicity index, ratio of EC50 for mouse J774 cells to EC50 for chloroquine, mefloquine, pyrimethamine and atovaquone-resistant Plasmodium falciparum TM90-C2B; assay type: cell-based; conditions: read-out: Ratio EC50
Plasmodium falciparum [4] = assay: Antimalarial activity against chloroquine, mefloquine, pyrimethamine and atovaquone-resistant Plasmodium falciparum TM90-C2B infected in human A positive erythrocytes after 72 hrs by SYBR Green I assay; assay type: functional, organism-based
[5] = Permeability of the compound by PAMPA method at pH 7.4; assay type: ADME; conditions: read-out: permeability
[6] = Aqueous solubility of compound at pH 7.4 by HPLC analysis; conditions: buffer
J774 = assay: Cytotoxicity against mouse J774 cells after 72 hrs by Cell titer 96 aqueous one solution cell proliferation assay; assay type: cell-based; conditions: J774, 72 h
Plasmodium falciparum [7] = assay: Antimalarial activity against chloroquine and pyrimethamine-resistant Plasmodium falciparum W2 infected in human A positive erythrocytes after 72 hrs by SYBR Green I assay; assay type: functional, organism-based; conditions: W2, 72 h

| SMILES | logD [1] | Ratio EC50 (Plasmodium falciparum [2]) | selectivity ratio [3] | EC50 (Plasmodium falciparum [4]) [nM] | Papp [5] [×10⁻⁶ cm/s] | solubility [6] [µM] | EC50 (J774) [µM] | EC50 (Plasmodium falciparum [7]) [nM] |
| --- | --- | --- | --- | --- | --- | --- | --- | --- |
| Oc1c2c(nc3ccc(Br)cc13)CCCC2 | 2.1 | 0.32 | ≥ 100 | 64.7 | 63 | 2 (≈ 0.556 µg/mL) | > 2 | 197 |
| CC1(C)CCc2[nH]c3cccc(Cl)c3c(=O)c2C1 | 2.4 | 1.61 | ≥ 100 | 599 | 117 | 23 (≈ 6.02 µg/mL) | > 40 | 373 |
| CC1(C)CCc2c([nH]c3ccccc3c2=O)C1 | 1.9 | 0.18 | ≥ 100 | 335 | 43 | 64 (≈ 14.5 µg/mL) | > 40 | 1870 |
| COc1cccc2c(=O)c3c([nH]c12)CC(C)(C)CC3 | 2.4 | 0.38 | ≥ 100 | 2490 | 114 | 91 (≈ 23.4 µg/mL) | > 20 | 6540 |
| COc1cccc2[nH]c3c(c(=O)c12)CCC(C)(C)C3 | 1.7 | <0.42 | ≥ 100 | 4100 | 43 | 64 (≈ 16.5 µg/mL) | > 20 | > 9720 |
| Cc1cccc2c(=O)c3c([nH]c12)CC(C)(C)CC3 | 2.3 | 0.74 | ≥ 100 | 1750 | 88 | 60 (≈ 14.5 µg/mL) | > 40 | 2370 |
| Cc1ccc2c(=O)c3c([nH]c2c1)CC(C)(C)CC3 | 2.49 | 0.66 | ≥ 100 | 965 | 53 | 17 (≈ 4.1 µg/mL) | > 10 | 1460 |
| Cc1ccc2[nH]c3c(c(=O)c2c1)CCC(C)(C)C3 | 2.4 | 0.54 | ≥ 100 | 319 | 78 | 4 (≈ 0.965 µg/mL) | > 2 | 587 |
| CC1(C)CCc2c([nH]c3c(Cl)cccc3c2=O)C1 | 3 | >1.42 | ≥ 100 | > 9550 | 407 | 20 (≈ 5.24 µg/mL) | > 20 | 6700 |
| CC1(C)CCc2c([nH]c3ccc(Cl)cc3c2=O)C1 | 2.7 | 2.5 | ≥ 100 | 538 | 96 | 2 (≈ 0.524 µg/mL) | > 1 | 215 |
| CC1(C)CCc2c([nH]c3cccc(Cl)c3c2=O)C1 | 2.5 | 1.78 | ≥ 100 | 5330 | 103 | 6 (≈ 1.57 µg/mL) | > 5 | 2990 |
| O=c1c2c([nH]c3cc([N+](=O)[O-])ccc13)CCCC2 | 1.5 | 0.91 | ≥ 100 | 959 | 63 | 3 (≈ 0.733 µg/mL) | > 2 | 1050 |
| O=c1c2c([nH]c3ccc([N+](=O)[O-])cc13)CCCC2 | 1.5 | 0.12 | ≥ 100 | 379 | 6.9 | 8 (≈ 1.95 µg/mL) | > 5 | 3160 |
| O=c1c2c([nH]c3c(F)cccc13)CCCC2 | 1.5 | 5.43 | ≥ 100 | 2910 | 17 | 109 (≈ 23.7 µg/mL) | > 40 | 536 |
| O=c1c2c([nH]c3cc(F)ccc13)CCCC2 | 1.7 | 1.76 | ≥ 100 | 119 | 21 | 46 (≈ 9.99 µg/mL) | > 20 | 67.7 |
| O=c1c2c([nH]c3ccc(I)cc13)CCCC2 | 2.3 | 0.44 | ≥ 100 | 167 | 96 | 4 (≈ 1.3 µg/mL) | > 20 | 378 |
| O=c1c2c([nH]c3cc(Br)ccc13)CCCC2 | 2.8 | 1.48 | ≥ 100 | 115 | 70 | 14 (≈ 3.89 µg/mL) | > 10 | 77.7 |
| CC(C)(C)c1ccc2[nH]c3c(c(=O)c2c1)CCCC3 | 2.8 | 4.13 | ≥ 100 | 325 | 165 | 5 (≈ 1.28 µg/mL) | > 5 | 78.7 |

| SMILES | logD [1] | Ratio EC50 (Plasmodium falciparum [2]) | selectivity ratio [3] | EC50 (Plasmodium falciparum [4]) [nM] | Papp [5] [×10⁻⁶ cm/s] | solubility [6] [µM] | EC50 (J774) [µM] | EC50 (Plasmodium falciparum [7]) [nM] |
| --- | --- | --- | --- | --- | --- | --- | --- | --- |
| CC(C)c1ccc2[nH]c3c(c(=O)c2c1)CCCC3 | 2.2 | 0.83 | ≥ 100 | 732 | 100 | 30 (≈ 7.24 µg/mL) | > 40 | 879 |
| CCOc1ccc2[nH]c3c(c(=O)c2c1)CCCC3 | 1.9 | 0.85 | ≥ 100 | 226 | 52 | 5 (≈ 1.22 µg/mL) | > 5 | 265 |
| CCOC(=O)c1ccc2[nH]c3c(c(=O)c2c1)CCCC3 | 2.1 | 0.38 | ≥ 100 | 58.3 | 63 | 8 (≈ 2.17 µg/mL) | > 5 | 153 |
| Cc1ccc(C)c2c(=O)c3c([nH]c12)CCCC3 | 2.6 | 0.78 | ≥ 100 | 2390 | 263 | 122 (≈ 27.7 µg/mL) | > 20 | 3070 |
| Cc1cc(C)c2[nH]c3c(c(=O)c2c1)CCCC3 | 2.2 | 0.72 | ≥ 100 | 768 | 58 | 108 (≈ 24.5 µg/mL) | > 40 | 1070 |
| Cc1ccc2c(=O)c3c([nH]c2c1C)CCCC3 | 2.2 | 0.58 | ≥ 100 | 2280 | 42 | 8 (≈ 1.82 µg/mL) | > 5 | 3920 |
| COc1cc(OC)c2[nH]c3c(c(=O)c2c1)CCCC3 | 1.9 | <0.83 | ≥ 100 | 7980 | 51 | 152 (≈ 39.4 µg/mL) | > 20 | > 9640 |
| COc1cc(OC)c2c(=O)c3c([nH]c2c1)CCCC3 | 1.4 | <0.36 | ≥ 100 | 2590 | 13 | 188 (≈ 48.7 µg/mL) | > 40 | > 7290 |
| COc1ccc2c(=O)c3c([nH]c2c1OC)CCCC3 | 1.8 | 0.55 | ≥ 100 | 3460 | 19 | 175 (≈ 45.4 µg/mL) | > 20 | 6340 |
| COc1cc2[nH]c3c(c(=O)c2cc1OC)CCCC3 | 1.3 | 0.38 | ≥ 100 | 3390 | 1 | 88 (≈ 22.8 µg/mL) | > 20 | 8970 |
| O=c1c2c([nH]c3cc(Cl)cc(Cl)c13)CCCC2 | 2.5 | 1.1 | ≥ 100 | 96.2 | 134 | 8 (≈ 2.15 µg/mL) | > 5 | 87.8 |
| O=c1c2c([nH]c3c(Cl)c(Cl)ccc13)CCCC2 | 2.9 | >1.47 | ≥ 100 | > 9330 | 348 | 41 (≈ 11 µg/mL) | > 20 | 6330 |
| O=c1c2c([nH]c3cc(Cl)c(Cl)cc13)CCCC2 | 2.6 | 1.06 | ≥ 100 | 341 | 180 | 1 (≈ 0.268 µg/mL) | > 1 | 321 |
| O=c1c2c([nH]c3c(F)ccc(F)c13)CCCC2 | 1.3 | 1.64 | ≥ 100 | 1320 | 12 | 159 (≈ 37.4 µg/mL) | > 40 | 804 |
| O=c1c2c([nH]c3c(F)cc(F)cc13)CCCC2 | 1.7 | 0.15 | ≥ 100 | 405 | 29 | 66 (≈ 15.5 µg/mL) | > 40 | 2690 |
| O=c1c2c([nH]c3c(F)c(F)ccc13)CCCC2 | 1.9 | 0.36 | ≥ 100 | 378 | 38 | 93 (≈ 21.9 µg/mL) | > 40 | 1050 |
| O=c1c2c([nH]c3cc(F)c(F)cc13)CCCC2 | 1.9 | 0.91 | ≥ 100 | 118 | 28 | 18 (≈ 4.23 µg/mL) | > 10 | 129 |
| COc1cc2c(=O)c3c([nH]c2cc1Cl)CCCC3 | 1.3 | 0.33 | ≥ 100 | 11.5 | 24 | 33 (≈ 8.7 µg/mL) | > 20 | 35.2 |
